Assay: solvent given as SMILES

CCC1CCCCC1
Settings	solvation free energy, 298 K [kcal/mol]
in Brc1ccccc1	-5.2
in C1CCCCC1	-5.59
in C1CCOC1	-5.38
in C1COCCO1	-4.67
in C=CCCCC	-5.39
in C=CCCCCCC	-5.34
in C=CCCCCCCCC	-5.3
in CC1COC(=O)O1	-3.41
in CC#N	-3.87
in CC(=O)N(C)C	-4.21
in CC(=O)O	-4.16
in CC(=O)c1ccccc1	-4.54
in CC(C)=O	-4.54
in CC(C)CC(C)(C)C	-5.28
in CC(C)CCCC(C)CCCC(C)CCCCC(C)CCCC(C)CCCC(C)C	-4.99
in CC(C)CCO	-4.74
in CC(C)O	-4.53
in CC(C)OC(C)C	-5.26
in CCBr	-5.53
in CCC#N	-4.51
in CCC(C)=O	-4.81
in CCCC#N	-4.46
in CCCC(=O)OCC	-5.04
in CCCC(C)=O	-4.91
in CCCCC	-5.41
in CCCCCC	-5.42
in CCCCCC(C)=O	-4.96
in CCCCCCC	-5.39
in CCCCCCCC	-5.38
in CCCCCCCCC	-5.31
in CCCCCCCCC=CCCCCCCCC(=O)OCC(COC(=O)CCCCCCCC=CCCCCCCCC)OC(=O)CCCCCCCC=CCCCCCCCC	-5.07
in CCCCCCCCCC	-5.28
in CCCCCCCCCCCC	-5.21
in CCCCCCCCCCCCCCCC	-5.15
in CCCCCCCCO	-4.84
in CCCCCCOC(C)=O	-5.05
in CCCCO	-4.69
in CCCCOC(=O)c1ccccc1C(=O)OCCCC	-4.8
in CCCCOC(C)=O	-4.99
in CCCCOCCCC	-5.24
in CCCO	-4.55
in CCN(CC)CC	-5.43
in CCO	-4.47
in CCOC(=O)c1ccccc1C(=O)OCC	-4.24
in CCOC(C)=O	-4.83
in CCOCC	-5.33
in CCOCCOCCOCC	-4.82
in CCOc1ccccc1	-4.96
in CN1CCCC1=O	-4.2
in CN(C)C=O	-4.06
in CN(C)P(=O)(N(C)C)N(C)C	-4.49
in CNC=O	-3.73
in CO	-4.05
in COC(C)=O	-4.62
in COCCO	-4.06
in COc1ccccc1	-4.91
in CS(C)=O	-3.28
in Cc1ccc(C)cc1	-5.35
in Cc1ccccc1	-5.37
in Cc1ccccn1	-5
in ClC(Cl)(Cl)Cl	-5.58
in ClC(Cl)Cl	-5.46
in ClCCCl	-4.91
in ClCCl	-5.2
in Clc1ccccc1	-5.37
in FC(F)(F)C(F)(F)C(F)(F)C(F)(F)C(F)(F)C(F)(F)C(F)(F)C(F)(F)F	-3.5
in FC(F)(F)C(F)(F)C(F)(F)C(F)(F)C(F)(F)C(F)(F)F	-3.53
in Fc1ccccc1	-5.22
in ICI	-3.85
in N#Cc1ccccc1	-4.57
in NC=O	-1.81
in Nc1ccccc1	-3.93
in O	2.14
in O=C1CCCCC1	-4.85
in O=C1CCCO1	-3.62
in O=CN1CCOCC1	-3.52
in O=Cc1ccco1	-3.95
in OCCCCCO	-3.47
in OCCCCO	-3.26
in OCCCO	-2.9
in OCCO	-2.11
in OCCOCCO	-2.81
in OCCOCCOCCO	-3.01
in OCc1ccccc1	-4.14
in S=C=S	-5.65
in c1ccccc1	-5.35
in c1ccncc1	-4.73

CC(C)CC(=O)CC(=O)CC(C)C
Settings	solvation free energy, 298 K [kcal/mol]
in O	-4.42

ICI
Settings	solvation free energy, 298 K [kcal/mol]
in O	-2.49

CC(C)I
Settings	solvation free energy, 298 K [kcal/mol]
in CCO	-3.98
in O	-0.46

CCCCCc1ccccc1
Settings	solvation free energy, 298 K [kcal/mol]
in O	-0.23

C=CC#N
Settings	solvation free energy, 298 K [kcal/mol]
in O	-3.34

CCOC(C)(C)CC
Settings	solvation free energy, 298 K [kcal/mol]
in O	-1.5

ClC(Cl)=C(Cl)Cl
Settings	solvation free energy, 298 K [kcal/mol]
in C1CCCC1	-5.37
in C1CCOC1	-5.43
in C1COCCO1	-5.1
in CCC(C)=O	-4.98
in CCCCCCCCCCCCCCCC	-4.88
in CS(C)=O	-4.27
in ClC(Cl)(Cl)Cl	-5.48
in ClCCCl	-5.05
in O	-0.06

O=[N+]([O-])c1ccc(Cl)cc1
Settings	solvation free energy, 298 K [kcal/mol]
in O	-5.05

Clc1cc(Cl)c(-c2c(Cl)c(Cl)cc(Cl)c2Cl)cc1Cl
Settings	solvation free energy, 298 K [kcal/mol]
in O	-2.77

Cc1cccc(C)c1N
Settings	solvation free energy, 298 K [kcal/mol]
in O	-5.21

O=c1cc(Cl)[nH]c(=O)[nH]1
Settings	solvation free energy, 298 K [kcal/mol]
in O	-15.8

CCCCCCCCCCCCCCO
Settings	solvation free energy, 298 K [kcal/mol]
in CC(C)O	-12.3
in CCC(C)=O	-12.6
in CCCCCCCCC=CCCCCCCCC(=O)OCC(COC(=O)CCCCCCCC=CCCCCCCCC)OC(=O)CCCCCCCC=CCCCCCCCC	-9.9
in CCCCCCCCCCO	-12.1
in CCCCCCO	-12.2
in O	-3.08

Cc1[nH]c(=O)n(C(C)(C)C)c(=O)c1Cl
Settings	solvation free energy, 298 K [kcal/mol]
in O	-11.1

CC(C)COC=O
Settings	solvation free energy, 298 K [kcal/mol]
in O	-2.22

c1ccc2c(c1)CCC2
Settings	solvation free energy, 298 K [kcal/mol]
in O	-1.42

CCCC(=O)CC(=O)CC
Settings	solvation free energy, 298 K [kcal/mol]
in O	-4.35

CCCCCCCCCCCCCCCCCC
Settings	solvation free energy, 298 K [kcal/mol]
in CC(=O)N(C)C	-12.1
in CCCCCCCCC=CCCCCCCCC(=O)OCC(COC(=O)CCCCCCCC=CCCCCCCCC)OC(=O)CCCCCCCC=CCCCCCCCC	-12.4
in CCCCOC(C)=O	-11.9
in CCO	-10.3
in O	4.15

CCNc1nc(NC(C)C)nc(OC)n1
Settings	solvation free energy, 298 K [kcal/mol]
in O	-10.2

CC1=CCC(C(C)C)=CC1
Settings	solvation free energy, 298 K [kcal/mol]
in O	-0.03
